Experimental data published in patent publication US10323041B2, “Bicyclic derivatives, a process for their preparation and pharmaceutical compositions containing them” (LES LABORATOIRES SERVIER, priority 2015, dated 2019).
Where two headings read alike, the source gives them in different places.

Legend:
[1] = test system: H929 multiple myeloma tumour line; assay: In vitro cytotoxicity, Microculture Tetrazolium Assay on H929 cells; format: cell-based; settings: cell viability, read-out: IC50 (M) MTT H929
Experimental: The cytotoxicity studies were carried out on the H929 multiple myeloma tumour line.
The cells are distributed onto microplates and exposed to the test compounds for 48 hours. The cell viability is then quantified by a colorimetric assay, the Microculture Tetrazolium Assay (Cancer Res., 1987, 47, 939-942).

cleaved form of PARP = assay: Quantification of the cleaved form of PARP in vivo; design: species or system mice (SCID strain); settings: AMO-1 xenograft in SCID mice; cleaved PARP in tumour lysates, treated / control; intraveinous or oral routes
Experimental: The ability of the compounds of the invention to induce apoptosis, by measuring cleaved PARP levels, is evaluated in a xenograft model of AMO-1 multiple myeloma cells.
1.10^7 AMO-1 cells are grafted sub-cutaneously into immunosuppressed mice (SCID strain). 12 to 14 days after the graft, the animals are treated by intraveinous or oral routes with the various compounds. After treatment, the tumour masses are recovered and lysed, and the cleaved form of PARP is quantified in the tumour lysates.
The quantification is carried out using the “Meso Scale Discovery (MSD) ELISA platform” test, which specifically assays the cleaved form of PARP. It is expressed in the form of an activation factor corresponding to the ratio between the quantity of cleaved PARP in the treated mice divided by the quantity of cleaved PARP in the control mice.

Mcl-1 protein = Mcl-1 protein (Homo sapiens, UniProt Q07820); assay: Inhibition of Mcl-1 by the fluorescence polarisation technique; format: binding
Outline: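 Competitive FP with fluorescein-labelled peptide ligand, 5% DMSO, ~2 h at room temperature, 11-point curves, 4-parameter IC50. Method 1: 1 nM ligand, 5 nM Mcl-1 in HEPES pH 7.4 buffer; Method 2: 10 nM ligand, 10 nM Mcl-1 in phosphate pH 7.4 buffer, 50 μM unlabelled ligand as full-inhibition control.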

[2] = Homo sapiens, NCI-H929, exposed for 48 hours
[3] = Method 1 (not underlined) or Method 2 (underlined), underlining not visible, first value where cell prints two, read-out: IC50 (M) Mcl-1 FP

Mcl-1 protein, sequence (Q07820 whole entry): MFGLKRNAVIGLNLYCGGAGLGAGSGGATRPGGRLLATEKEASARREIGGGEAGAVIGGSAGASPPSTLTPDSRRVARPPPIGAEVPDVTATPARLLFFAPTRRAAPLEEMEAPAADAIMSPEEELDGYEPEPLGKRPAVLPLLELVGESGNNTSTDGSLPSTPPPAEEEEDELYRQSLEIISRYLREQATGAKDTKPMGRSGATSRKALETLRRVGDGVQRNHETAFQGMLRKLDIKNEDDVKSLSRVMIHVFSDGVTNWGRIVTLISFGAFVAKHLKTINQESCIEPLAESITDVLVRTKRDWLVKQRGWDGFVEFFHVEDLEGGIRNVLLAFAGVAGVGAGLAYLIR

Structure (SMILES) | IC50 [1, 2] | IC50 (Mcl-1 protein; [3]) | other results
COc1ccccc1-c1nccc(COc2ccccc2CC(Oc2cccc3sc(-c4ccc(F)cc4)c(-c4ccc(OCCN5CCN(C)CC5)c(Cl)c4C)c23)C(=O)O)n1 (single isomer, unassigned) [Example 53] | 2.53e-08 M | 2.2e-08 M | PARP fold (cleaved form of PARP): 40.2 fold
COc1ccccc1-c1nccc(COc2ccccc2C[C@@H](Oc2ncnc3oc(-c4ccc(F)cc4)c(-c4ccc(OCCN5CCN(C)CC5)c(Cl)c4C)c23)C(=O)O)n1 [Example 1, (2R)-2-{[5-{3-chloro-2-methyl-4-[2-(4-methylpiperazin-1-yl)ethoxy]phenyl}-6-(4-fluorophenyl)furo[2,3-d]pyrimidin-4-yl]oxy}-3-(2-{[2-(2-methoxyphenyl)pyrimidin-4-yl]methoxy}phenyl)propanoic acid] | 2.41e-08 M | 3.8e-09 M | PARP fold (cleaved form of PARP): 157.5 fold
CCc1c(-c2c(-c3ccc(F)cc3)oc3ncnc(O[C@H](Cc4ccccc4OCc4ccnc(-c5ccccc5OC)n4)C(=O)O)c23)ccc(OCCN2CCN(C)CC2)c1Cl [Example 2, (2R)-2-{[5-{3-chloro-2-ethyl-4-[2-(4-methylpiperazin-1-yl)ethoxy]phenyl}-6-(4-fluorophenyl)furo[2,3-d]pyrimidin-4-yl]oxy}-3-(2-{[2-(2-methoxyphenyl)pyrimidin-4-yl]methoxy}phenyl)propanoic acid] | 1.45e-08 M | 6e-09 M | PARP fold (cleaved form of PARP): 216.3 fold
Cc1c(-c2c(-c3ccc(Cl)o3)oc3ncnc(O[C@H](Cc4ccccc4OCc4cnccn4)C(=O)O)c23)ccc(OCCN2CCN(C)CC2)c1Cl [Example 5, (2R)-2-{[6-(5-chlorofuran-2-yl)-5-{3-chloro-2-methyl-4-[2-(4-methylpiperazin-1-yl)ethoxy]phenyl}furo[2,3-d]pyrimidin-4-yl]oxy}-3-[2-(pyrazin-2-ylmethoxy)phenyl]propanoic acid] | 6.19e-07 M | 1.5e-08 M | –
COc1ccccc1CC(Nc1ncnc2oc(-c3ccc(F)cc3)c(-c3ccc(OCCN4CCN(C)CC4)c(Cl)c3C)c12)C(=O)O [Example 7, N-[(5Sa)-5-{3-chloro-2-methyl-4-[2-(4-methylpiperazin-1-yl)ethoxy]phenyl}-6-(4-fluorophenyl)furo[2,3-d]pyrimidin-4-yl]-2-methoxy-D-phenylalanine] | 7.57e-07 M | 1.1e-07 M | –
COc1ccccc1-c1nccc(COc2ccccc2C[C@@H](Nc2ncnc3oc(-c4ccc(F)cc4)c(-c4ccc(OCCN5CCN(C)CC5)c(Cl)c4C)c23)C(=O)O)n1 [Example 9, N-[(5Ra)-5-{3-chloro-2-methyl-4-[2-(4-methylpiperazin-1-yl)ethoxy]phenyl}-6-(4-fluorophenyl)furo[2,3-d]pyrimidin-4-yl]-2-{[2-(2-methoxyphenyl)pyrimidin-4-yl]methoxy}-D-phenylalanine] | – | 8.6e-08 M | IC50 ([1]; exposed for 48 hours): 6.89e-08 M
CCc1sc2cccc(OC(Cc3ccccc3)C(=O)O)c2c1-c1ccc(OCCN2CCN(C)CC2)c(Cl)c1C [Example 51, (2R)-2-[((3Sa)-3-{3-chloro-2-methyl-4-[2-(4-methylpiperazin-1-yl)ethoxy]phenyl}-2-ethyl-1-benzothiophen-4-yl)oxy]-3-phenylpropanoic acid] | 1.1e-05 M | 3.6e-07 M | IC50 (Mcl-1 protein; value after '/', presumably the other FP method (Method 1 / Method 2), read-out: IC50 (M) Mcl-1 FP, second value of the cell): 5.5e-09 M
COc1ccccc1CC(Oc1cccc2cc(-c3ccco3)n(-c3ccc(OCCN4CCN(C)CC4)c(Cl)c3C)c12)C(=O)O [Example 59, (2R)-2-{[(1Sa)-1-{3-chloro-2-methyl-4-[2-(4-methylpiperazin-1-yl)ethoxy]phenyl}-2-(furan-2-yl)-1H-indol-7-yl]oxy}-3-(2-methoxyphenyl)propanoic acid] | 1.24e-06 M | 3.6e-08 M | –
COc1ccccc1CC(Oc1cccc2cc(-c3ccc(F)o3)n(-c3ccc(OCCN4CCN(C)CC4)c(Cl)c3C)c12)C(=O)O [Example 60, (2R)-2-{[(1Sa)-1-{3-chloro-2-methyl-4-[2-(4-methylpiperazin-1-yl)ethoxy]phenyl}-2-(5-fluorofuran-2-yl)-1H-indol-7-yl]oxy}-3-(2-methoxyphenyl)propanoic acid] | 5.68e-07 M | 1.9e-08 M | –
COc1ccccc1-c1nccc(COc2ccccc2CC(Oc2ccnc3sc(-c4ccc(F)cc4)c(-c4ccc(OCCN5CCN(C)CC5)c(Cl)c4C)c23)C(=O)O)n1 [Example 71, (2R)-2-{[(3Sa)-3-{3-chloro-2-methyl-4-[2-(4-methylpiperazin-1-yl)ethoxy]phenyl}-2-(4-fluorophenyl)thieno[2,3-b]pyridin-4-yl]oxy}-3-(2-{[2-(2-methoxyphenyl)pyrimidin-4-yl]methoxy}phenyl)propanoic acid] | 9.08e-09 M | 5.02e-09 M | –
COc1ccccc1-c1nccc(COc2ccccc2CC(Oc2ccnc3sc(-c4ccc(F)cc4)c(-c4ccc(OCCN5CCN(C)CC5)c(Cl)c4C)c23)C(=O)OC(C)OC(=O)N(C)C)n1 [Example 75, 1-[(dimethylcarbamoyl)oxy]ethyl (2R)-2-{[(3Sa)-3-{3-chloro-2-methyl-4-[2-(4-methylpiperazin-1-yl)ethoxy]phenyl}-2-(4-fluorophenyl)thieno[2,3-b]pyridin-4-yl]oxy}-3-(2-{[2-(2-methoxyphenyl)pyrimidin-4-yl]methoxy}phenyl)propanoate] | 7.55e-08 M | 5.61e-07 M | –
CCOC(=O)OC(C)OC(=O)C(Cc1ccccc1OCc1ccnc(-c2ccccc2OC)n1)Oc1ccnc2sc(-c3ccc(F)cc3)c(-c3ccc(OCCN4CCN(C)CC4)c(Cl)c3C)c12 [Example 76, 1-[(ethoxycarbonyl)oxy]ethyl (2R)-2-{[(3Sa)-3-{3-chloro-2-methyl-4-[2-(4-methylpiperazin-1-yl)ethoxy]phenyl}-2-(4-fluorophenyl)thieno[2,3-b]pyridin-4-yl]oxy}-3-(2-{[2-(2-methoxyphenyl)pyrimidin-4-yl]methoxy}phenyl)propanoate] | 1.01e-08 M | 1.34e-07 M | –
COc1ccccc1-c1nccc(COc2ccccc2C[C@@H](Nc2ccnc3sc(-c4ccc(F)cc4)c(-c4ccc(OCCN5CCN(C)CC5)c(Cl)c4C)c23)C(=O)O)n1 [Example 84, N-[3-{3-chloro-2-methyl-4-[2-(4-methylpiperazin-1-yl)ethoxy]phenyl}-2-(4-fluorophenyl)thieno[2,3-b]pyridin-4-yl]-2-{[2-(2-methoxyphenyl)pyrimidin-4-yl]methoxy}-D-phenylalanine] | 1.09e-08 M | 5.45e-09 M | –
COc1ccccc1-c1nccc(COc2ccccc2C[C@@H](Nc2nccc3sc(-c4ccc(F)cc4)c(-c4ccc(OCCN5CCN(C)CC5)c(Cl)c4C)c23)C(=O)O)n1 [Example 86, N-[3-{3-chloro-2-methyl-4-[2-(4-methylpiperazin-1-yl)ethoxy]phenyl}-2-(4-fluorophenyl)thieno[3,2-c]pyridin-4-yl]-2-{[2-(2-methoxyphenyl)pyrimidin-4-yl]methoxy}phenylalanine] | 3.59e-08 M | 3.05e-08 M | –
COc1ccccc1-c1nccc(COc2ccccc2CC(Oc2nccc3nc(-c4ccc(F)cc4)c(-c4ccc(OCCN5CCN(C)CC5)c(Cl)c4C)n23)C(=O)O)n1 (centres unmarked) [Example 97a, 2-{[(3Sa)-3-{3-chloro-2-methyl-4-[2-(4-methylpiperazin-1-yl)ethoxy]phenyl}-2-(4-fluorophenyl)imidazo[1,2-c]pyrimidin-5-yl]oxy}-3-(2-{[2-(2-methoxyphenyl)pyrimidin-4-yl]methoxy}phenyl)propanoic acid] | – | – | IC50 ([1]; exposed for 48 hours): 1.16e-05 M; percentage fluorescence polarization inhibition (Mcl-1 protein; @ 10 μM test compound, partial inhibitors): 55% @ 10 μM
COc1ccccc1-c1nccc(COc2ccccc2CC(Oc2nccc3nc(-c4ccc(F)cc4)c(-c4ccc(OCCN5CCN(C)CC5)c(Cl)c4C)n23)C(=O)O)n1 (centres unmarked) [Example 97b, 2-{[(3Ra)-3-{3-chloro-2-methyl-4-[2-(4-methylpiperazin-1-yl)ethoxy]phenyl}-2-(4-fluorophenyl)imidazo[1,2-c]pyrimidin-5-yl]oxy}-3-(2-{[2-(2-methoxyphenyl)pyrimidin-4-yl]methoxy}phenyl)propanoic acid] | 4.59e-07 M | 4.1e-08 M | –
COc1ccccc1-c1nccc(COc2ccccc2C[C@@H](Nc2ccnc3nc(-c4ccc(F)cc4)c(-c4ccc(OCCN5CCN(C)CC5)c(Cl)c4C)n23)C(=O)O)n1 [Example 102, N-[3-{3-chloro-2-methyl-4-[2-(4-methylpiperazin-1-yl)ethoxy]phenyl}-2-(4-fluorophenyl)imidazo[1,2-a]pyrimidin-5-yl]-2-{[2-(2-methoxyphenyl)pyrimidin-4-yl]methoxy}-D-phenylalanine] | > 3e-05 M | – | IC50 (M) Mcl-1 FP (Mcl-1 protein; Method 1 (not underlined) or Method 2 (underlined), underlining not visible, first value where cell prints two): no curve
